Legend:
[1] = cation:anion 1:2
Excerpt: IL selection. A library of ILs was designed and synthesized to assess siRNA delivery into skin. Cholinium was used as the cation in all ILs due to its biocompatibility. Several different anions were used to synthesize ILs (FIGS. 24A-24E). […] Other anions were chosen for several reasons. First, anions containing shorter linear carbon chains were chosen in contrast to geranic acid to assess the impact of the chain length on siRNA stability and delivery. Anions with aromatic groups were chosen since they might interact with the stacked RNA base pairs via electrostatic, hydrophobic, and polar interactions. All ILs were prepared at a stoichiometric ratio of 1:2 (cation:anion) and were assessed for stability and siRNA delivery. […] In addition, since both interleukin and ILs have been denoted as “IL,” for the purpose of clarity, all interleukins are referred by a numerical value throughout the manuscript.
(§1) Skin-penetrating IL-RNA complexes. The cholinium-based IL library was synthesized as described previously (26). Briefly, the cation, choline bicarbonate, and various anions were mixed at a 1:2 ratio to prepare ILs following salt metathesis reaction. […] The resulting IL solution was dried using a rotary evaporator at 20 mbar at 60° C. for 2 hours. The residual water was removed in a vacuum oven at 60° C. for 48 hours. The ILs that were viscous at RT were characterized via NMR with dimethyl sulfoxide (DMSO)-d6 on an Agilent DD2 600-MHz spectrometer (Supplementary Materials and Methods). ILs were mixed with RNA (100 μM) at a volumetric ratio of 1:1 and incubated for 30 min at RT. The RNA-IL solutions (1 ml) were dialyzed against 10 mM sodium phosphate buffer for 72 hours using Dialysis Cassettes (10,000 molecular weight cutoff, Invitrogen). The concentration of RNA was confirmed and normalized using a NanoDrop instrument (Thermo Fisher Scientific). The stability of the RNA in the IL solution was determined using CD and gel electrophoresis.

siRNA = conditions: IL 50% (v/v), 30 min incubation, dialysis 72 h
Procedure: as §1
RNA concentrations were normalized in 10 mM sodium phosphate buffer and incubated for 30 mins at RT to ensure reduction and equilibrium, and then loaded into quartz cuvettes. Near-UV spectra were recorded from 200 nm to 310 nm at 20° C. by averaging 5 scans at 0.1 nm intervals for each sample. Spectrum Manager 2 was used to subtract the baseline and the spectra were plotted as molar ellipticity, [0] (deg.cm2.dmol-1).

porcine skin = assay: Porcine skin penetration of Cy5-labeled siRNA in Franz diffusion cells (tape-stripping); type: in vitro ADME; conditions: 24 h, IL 50% v/v or naked siRNA
Procedure: Skin penetration studies. Skin penetration studies were performed using porcine skin in FDCs, as described previously (40). A total volume of 20 μl of Cy5-labeled RNA (50 μM) in IL solutions was applied to the porcine skin surface and was incubated at 40° C. for 24 hours under occlusive conditions with moderate stirring. The skin permeability of RNA was visualized and quantified using confocal microscopy and tape-stripping techniques, respectively.
Porcine skin penetration ex-vivo studies Porcine skin studies were carried out in Franz diffusion cells (FDC) with penetration area of 1.77 cm^2. The porcine skin was obtained from Lampire Biological Laboratories, Pipersville, PA, USA. Briefly skins were thawed, hairs were trimmed, and washed with phosphate buffer saline (PBS, pH 7.4). A 36 mm punch was used to cut out a disc of the skin and a scalpel was used to get rid of the connective tissues and subcutaneous fat layers. […] 1 mL PBS was added to the donor chamber and the conductivity was measured using a waveform generator (Agilent 33120) and voltmeter (Fluke 87 True RMS Multimeter) at a frequency of 100 Hz and amplitude, 100 mV. Only skin samples with a measured transepidermal conductivity of less than […] were used for further studies. […] Following incubation, the skin was removed from the cell, washed gently with PBS and were further analyzed using tape-stripping and confocal microscopy. […]

[2] = anion of ionic liquid; cited from earlier work
[3] = test system: intestinal villi of Wistar rats; assay: In vivo local delivery of antibody-CGLY via intrajejunal administration; conditions: rat, 1 mg mL^−1 FITC-IgG in 50% v/v CGLY2:1, 2 h
Procedure: Rats receiving equivalent saline injection without FITC-IgG were used as the negative control group. After 2 h, the rats were sacrificed and jejunal tissues were harvested and preserved using Swiss-rolling technique^[14]. […] The tissues were then frozen at −80° C. in the presence of optimum cutting temperature (OCT) compound and tissue sections were cut into 25 m thickness. was visualized using a slide scanner microscope (ZEISS Axio Scan.Z1) and the images processed using Zen™ (Blue edition) software.

Molecule | physical state at room temperature [1] | siRNA secondary structure (CD, band at 210 nm) (siRNA) | pKa [2] | further results
choline and geranic acid [CAGE, reference compound] | viscous liquid | notable alteration in the a helix backbone |  | siRNA delivered into the epidermis (porcine skin): About 0.20 nmol/cm2
CC(C)=CC(=O)O [3,3-dimethylacrylic acid] |  |  | 5.02 | 
O=P(O)(O)Oc1ccccc1 [Phenylphosphoric acid] |  |  | 9.99 | 
choline and dimethylacrylic acid [CADA] | viscous liquid | notable alteration in the a helix backbone |  | 
choline and phenylpropanoic acid [CAPA] | viscous liquid | retained the secondary structure of siRNA |  | 
O=S(=O)(O)c1ccc(O)cc1 [4-hydroxybenzenesulfonic acid] |  |  | 9.11 | 
O=C(O)c1cccc(-c2ccccc2)c1 [Bipheny1-3-carboxylic acid] |  |  | 4.14 | 
choline and phenylphosphoric acid [CAPP] | solidified or formed a gel |  |  | 
C[N+](C)(C)CCO.O=C([O-])CO [CGLY2:1, choline-glycolate] |  |  |  | FITC-IgG fluorescence signal on intestinal villi vs no-CGLY2:1 control [3]: over 4.5 fold
choline and biphenyl-3-carboxylic acid [CABA] | solidified or formed a gel | notable alteration in the a helix backbone |  | 

Source: patent US20240016735A1, “IONIC LIQUIDS FOR DRUG DELIVERY” (PRESIDENT AND FELLOWS OF HARVARD COLLEGE, priority 2019, published 2024)
